From patent publication US10301295B2, “Herbicidal compounds” (Syngenta Participations AG, priority 2014, dated 2019) come the findings set out here.

Like-named read-outs stand apart in the source and are kept apart here.

What all share (assay): Glasshouse assay for herbicidal activity, pre-/post-emergence (percentage phytotoxicity)
Format in all cases: in vivo

Test [1] deals with Alopecurus myosuroides (ALOMY). As to conditions: Alopecurus myosuroides, Rate 250 g/ha, 100%=total damage, 0%=no damage. The procedure:
(§1) Seeds of a variety of monocotyledonous and dicotyledonous test plants are sown in standard soil in pots. The plants are cultivated for one day (for pre-emergence) or for about 12 days (for post-emergence) under controlled conditions in a glasshouse (warm climate species at 24/18° C., cool climate species at 20/16° C., both at day/night; 16 hours light; 65% humidity). The test plants are then grown on, in a glasshouse (greenhouse) under controlled conditions (warm climate species at 24/18° C., cool climate species at 20/16° C., both at day/night; 16 hours light; 65% humidity) and are watered twice daily. 15 days after application of the test herbicide (15DAA) (for post-emergence), and 20 days after application of the test herbicide (20DAA) (for pre-emergence), the test plants are evaluated visually, and an assessed percentage phytotoxicity score is given for each herbicidal application on each plant species (with 100%=total damage to plant; 0%=no damage to plant). The plant species tested are as follows: Alopecurus myosuroides (ALOMY), Avena fatua (AVEFA), Lolium perenne (LOLPE), Echinochloa crus-galli (ECHCG).

The next test relates to Avena fatua (AVEFA). Particulars: Avena fatua, Rate 250 g/ha, 100%=total damage, 0%=no damage. The procedure:
as §1

Test [2] concerns Echinochloa crus-galli (ECHCG). As to conditions: Echinochloa crus-galli, Rate 250 g/ha, 100%=total damage, 0%=no damage. The procedure: as §1
The next test has as its system Lolium perenne (LOLPE). As to conditions: Lolium perenne, Rate 250 g/ha, 100%=total damage, 0%=no damage. The procedure:
as §1

Setting [3] is: 360 h, post-emergence, visual assessment 15 DAA, read-out: Post-emergence herbicidal activity (percentage phytotoxicity), ALOMY POST.
Where [4] appears, read: 480 h, pre-emergence, visual assessment 20 DAA, read-out: Pre-emergence herbicidal activity (percentage phytotoxicity), ALOMY PRE.
Where [5] appears, read: post-emergence, 360 h, post-emergence, visual assessment 15 DAA, read-out: Post-emergence herbicidal activity (percentage phytotoxicity), AVEFA POST.
Where [6] appears, read: pre-emergence, 480 h, pre-emergence, visual assessment 20 DAA, read-out: Pre-emergence herbicidal activity (percentage phytotoxicity), AVEFA PRE.
[7] abbreviates: post-emergence, 360 h, post-emergence, visual assessment 15 DAA, read-out: Post-emergence herbicidal activity (percentage phytotoxicity), ECHCG POST.
[8] abbreviates: pre-emergence, 480 h, pre-emergence, visual assessment 20 DAA, read-out: Pre-emergence herbicidal activity (percentage phytotoxicity), ECHCG PRE.
[9] abbreviates: post-emergence, 360 h, post-emergence, visual assessment 15 DAA, read-out: Post-emergence herbicidal activity (percentage phytotoxicity), LOLPE POST.
Setting [10] is: pre-emergence, 480 h, pre-emergence, visual assessment 20 DAA, read-out: Pre-emergence herbicidal activity (percentage phytotoxicity), LOLPE PRE.

`Cc1cc(-n2cc(Cl)cn2)cc(C)c1C1C(=O)CC(CCNc2ccc(C(F)(F)F)cn2)C1=O` (centres unmarked) [Compound A100]: the pest or weed control at 250 g/ha in test [1] (setting [3]) is 90%; in test [1] (setting [4]) it was 60%; with Avena fatua (AVEFA) (setting [5]), 100%; in the test on Avena fatua (AVEFA) (setting [6]) it was 50%; in test [2] (setting [7]), 100%; in test [2] (setting [8]) it was 90%. Besides, the pest or weed control at 250 g/ha with Lolium perenne (LOLPE) (setting [9]) worked out at 100%; in the test on Lolium perenne (LOLPE) (setting [10]) it was 70%.
Regarding `Cc1cc(-c2ncc(F)cc2F)cc(C)c1C1C(=O)CC(CCNC(=O)C2=NOC(C)(C)C2)C1=O` (centres unmarked) [Compound A111], the pest or weed control at 250 g/ha was 100% in test [1] (setting [3]); 100% in test [1] (setting [4]); 100% with Avena fatua (AVEFA) (setting [5]); 100% with Avena fatua (AVEFA) (setting [6]); 100% in test [2] (setting [7]); 90% in test [2] (setting [8]). Further, the results for the pest or weed control at 250 g/ha in the test on Lolium perenne (LOLPE) (setting [9]) and with Lolium perenne (LOLPE) (setting [10]) were 40% and 90%, respectively.
For the compound `Cc1cc(C)c(C2C(=O)CC(CCNc3ncc(C(F)(F)F)cc3F)C2=O)c(C)c1` (centres unmarked) [Compound A97], the pest or weed control at 250 g/ha in test [1] (setting [3]) stood at 90%; in test [1] (setting [4]), 80%; in the test with Avena fatua (AVEFA) (setting [5]) it was 90%; with Avena fatua (AVEFA) (setting [6]), 90%; in test [2] (setting [7]) it was 100%; in test [2] (setting [8]), 90%. Also, the pest or weed control at 250 g/ha in the test with Lolium perenne (LOLPE) (setting [9]) worked out at 90%; with Lolium perenne (LOLPE) (setting [10]) it was 100%.
With `Cc1cc(-n2cc(Cl)cn2)cc(C)c1C1C(=O)CC(CCNc2ccc([N+](=O)[O-])cn2)C1=O` (centres unmarked) [Compound A99], the pest or weed control at 250 g/ha in test [1] (setting [3]) worked out at 70%; in test [1] (setting [4]) it was 0%; in the test on Avena fatua (AVEFA) (setting [5]), 90%; with Avena fatua (AVEFA) (setting [6]), 0%; in test [2] (setting [7]) it was 100%; in test [2] (setting [8]) it was 0%. Further, the figures for the pest or weed control at 250 g/ha with Lolium perenne (LOLPE) (setting [9]) and in the test on Lolium perenne (LOLPE) (setting [10]) were 60% and 0%, respectively.
Turning to `Cc1cc(C)c(C2C(=O)C[C@@H](CCNC(=O)C3=NOC(C)(C)C3)C2=O)c(C)c1` (some centres unmarked) [Compound A102], the pest or weed control at 250 g/ha in test [1] (setting [3]) is 100%; in test [1] (setting [4]), 100%; in the test on Avena fatua (AVEFA) (setting [5]) it was 100%; in the test with Avena fatua (AVEFA) (setting [6]), 90%; in test [2] (setting [7]), 100%; in test [2] (setting [8]), 100%. The pest or weed control at 250 g/ha with Lolium perenne (LOLPE) (setting [9]) and in the test with Lolium perenne (LOLPE) (setting [10]) was 100% each time.
In the case of `Cc1cc(C)c(C2C(=O)CC(CCN(C)C(=O)Nc3ccccn3)C2=O)c(C)c1` (centres unmarked) [Compound A101, 1-[2-[2,4-dioxo-3-(2,4,6-trimethylphenyl)cyclopentyl]ethyl]-1-methyl-3-(2-pyridyl)urea], the pest or weed control at 250 g/ha in test [1] (setting [3]) was 70%; in test [1] (setting [4]), 40%; in the test with Avena fatua (AVEFA) (setting [5]), 70%; in the test on Avena fatua (AVEFA) (setting [6]), 0%; in test [2] (setting [7]), 70%; in test [2] (setting [8]), 10%. Besides, the pest or weed control at 250 g/ha in the test on Lolium perenne (LOLPE) (setting [9]) was found to be 40%; in the test with Lolium perenne (LOLPE) (setting [10]) it was 30%.
`C=Cc1cc(C)cc(C)c1C1C(=O)CC(CCNC(=O)C2=NOC(C)(C)C2)C1=O` (racemic) [Compound A122, N-[2-[3-(2,4-dimethyl-6-vinyl-phenyl)-2,4-dioxo-cyclopentyl]ethyl]-5,5-dimethyl-4H-isoxazole-3-carboxamide]: the pest or weed control at 250 g/ha in test [1] (setting [3]) worked out at 90%; in test [1] (setting [4]), 0%; in the test with Avena fatua (AVEFA) (setting [5]), 90%; in the test with Avena fatua (AVEFA) (setting [6]), 0%; in test [2] (setting [7]), 90%; in test [2] (setting [8]), 0%. The figures for the pest or weed control at 250 g/ha with Lolium perenne (LOLPE) (setting [9]) and with Lolium perenne (LOLPE) (setting [10]) were 80% and 0%, respectively.
